Numbered stars: 1 amine (or outer) side, 2 acyl side, 3 side chain; on linkers, the order of the positions; unused ones are H or OH. Bridge positions count the residues as written; N and C are the ends. Square brackets hold non-standard residues; d marks the D form. Peptide text beside a SMILES is read from it. * marks the point of attachment. X3 = O=C([C@H](CCCCNCCC=[*:3])N[*:1])[*:2]; X9 = O=C([C@H](CCCNCCC=[*:3])N[*:1])[*:2]; X2 = Cc1ccc2nc(-c3ccc(N*)cc3)sc2c1; AllylGly = C=CC[C@H](N)C(=O)O; pGlu = O=C1CC[C@@H](C(=O)O)N1; Nle = CCCC[C@H](N)C(=O)O; Bn = c1ccc(C*)cc1
target: T1, human APJ (hAPJ) (Homo sapiens, UniProt P35414); experiment: Competitive radioligand binding ([125I][Nle75,Tyr77][Pyr1]-Ape13) on membranes of HEK293 cells stably expressing human APJ; conditions: Ki binding
T1 construct: expressed in transfected cells; cell membranes
T1 sequence (P35414 1-380): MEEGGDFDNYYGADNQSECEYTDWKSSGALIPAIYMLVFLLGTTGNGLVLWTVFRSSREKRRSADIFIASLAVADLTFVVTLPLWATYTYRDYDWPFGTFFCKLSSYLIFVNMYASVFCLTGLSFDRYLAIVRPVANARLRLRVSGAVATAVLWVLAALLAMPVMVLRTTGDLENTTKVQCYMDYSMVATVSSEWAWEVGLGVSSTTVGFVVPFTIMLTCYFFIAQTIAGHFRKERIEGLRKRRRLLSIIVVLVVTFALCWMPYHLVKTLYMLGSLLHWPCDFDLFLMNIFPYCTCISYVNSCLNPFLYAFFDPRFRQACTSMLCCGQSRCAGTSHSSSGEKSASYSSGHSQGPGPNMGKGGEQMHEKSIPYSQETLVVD
Method: HEK293 cells stably expressing YFP-tagged human APJ were cultured in DMEM medium supplemented with 10% FBS, at 37° C. under a humid atmosphere maintaining 5% CO2. Antibiotic G418 (400 μg/mL) was added to maintain a selection pressure for APJ-expressing cells while penicillin/streptomycin (0.1%) were used to prevent bacterial contamination.
Binding experiments were performed on cell membranes of HEK293 stably expressing the YFP-tagged human APJ receptor. Cells were frozen at −80° C. for storage and quickly thawed right before the experiments (1 min at 37° C.). […] The precipitate (cell membranes) was suspended in binding buffer (50 mM Tris-HCl, 0.2% BSA, pH 7.4). Binding assays were run in 96-well plates. […] (820 Ci/mmol)^3 and test ligand with a range of concentrations from 10^−1 to 10^−11 M in a total volume of 200 μL for 1 h at room temperature.
The incubation mixtures were filtered through a glass fiber filter (Millipore, pre-absorbed of PEI 0.5% for 2 h at 4° C.) to remove unbound ligands, and the filter membranes were washed three times with 170 μL cold binding buffer (4° C.). The γ emission was measured using a 1470 Wizard γ-counter from PerkinElmer (Waltham, USA) (80% efficiency).

Going from `CCCC[C@H](NC(=O)[C@@H]1CCCN1C(=O)CNC(=O)[C@H](CCCCN)NC(=O)[C@@H]1CC=CC[C@H](NC(=O)[C@@H]2CCC(=O)N2)C(=O)N2CCC[C@H]2C(=O)N[C@@H](CCCNC(=N)N)C(=O)N[C@@H](CC(C)C)C(=O)N[C@@H](CO)C(=O)N1)C(=O)N1CCC[C@H]1C(=O)N[C@@H](Cc1ccccc1)C(=O)O` [Compound 4, Pyr-c[X-P-R-L-S-X]c-K-G-P-Nle-P-F] ([pGlu][AllylGly]PRLS[AllylGly]KGP[Nle]PF-OH; staple 2-7) to `CCCC[C@H](NC(=O)[C@@H]1CCCN1C(=O)CNC(=O)[C@H](CCCCN)NC(=O)[C@@H]1CC=CC[C@H](NC(=O)[C@@H]2CCC(=O)N2)C(=O)N2CCC[C@H]2C(=O)N[C@@H](C)C(=O)N[C@@H](CC(C)C)C(=O)N[C@@H](CO)C(=O)N1)C(=O)N1CCC[C@H]1C(=O)N[C@@H](Cc1ccccc1)C(=O)O` [Compound 7, Pyr-c[X-P-A-L-S-X]c-K-G-P-Nle-P-F] ([pGlu][AllylGly]PALS[AllylGly]KGP[Nle]PF-OH; staple 2-7), the Ki rises from 0.148 ± 0.021 µM to > 10 µM. The first binds more tightly here.

`N=C(N)NCCC[C@H](N)C(=O)N[C@H]1CCCCNCCC=CC[C@@H](C(=O)N[C@H](Cc2ccc(OCc3ccccc3)cc2)C(=O)O)NC(=O)[C@@H]2CCCN2C1=O` [Compound 57, NH2-R-c[K(N-butenyl)-P-X]-(D-Tyr(Obn))] (H-R[X3]P[AllylGly][dY](Bn)-OH; staple 2-4) and `N=C(N)NCCC[C@H](N)C(=O)N[C@H]1CCCCNC(=O)CC[C@@H](C(=O)N[C@@H](Cc2ccc(OCc3ccccc3)cc2)C(=O)O)NC(=O)[C@@H]2CCCN2C1=O` [Compound 58, NH2-R-c[K-P-E]-Tyr(Obn)] (H-RKPEY(Bn)-OH; lactam 2-4) cannot be ordered by Ki: > 10 µM for the first, > 10 µM for the second.

`N=C(N)NCCC[C@@H]1NC(=O)[C@@H](N)CC=CCCNCCC[C@@H](C(=O)N2CCC[C@H]2C(=O)N[C@@H](Cc2ccc(OCc3ccccc3)cc2)C(=O)O)NC1=O` [Compound 51, NH2-c[X-R-Orn(N-butenyl)]-P-Tyr(Obn)] (H-[AllylGly]R[X9]PY(Bn)-OH; staple 1-3) and `CC(C)C[C@@H]1NC(=O)[C@H](CCCNC(=N)N)NC(=O)[C@@H](N)CC=CC[C@@H](C(=O)N[C@@H](CCCCN)C(=O)O)NC(=O)[C@H](CO)NC1=O` [Compound 30, NH2-c[X-R-L-S-X]c-K] (H-[AllylGly]RLS[AllylGly]K-OH; staple 1-5) cannot be ordered by Ki: > 10 µM for the first, > 10 µM for the second.

Going from `CCCC[C@H](NC(=O)[C@@H]1CCCN1C(=O)[C@@H]1CCCCNC(=O)CC[C@H](NC(=O)[C@H](CC(C)C)NC(=O)[C@H](CCCNC(=N)N)NC(=O)[C@@H]2CCCN2C(=O)[C@H](CCCNC(=N)N)NC(=O)[C@H](CCC(N)=O)NC(=O)[C@H](CCCNC(=N)N)NC(=O)[C@H](CCCNC(=N)N)NC(=O)[C@H](Cc2ccccc2)NC(=O)[C@H](CCCCN)NC(C)=O)C(=O)N[C@@H](Cc2c[nH]cn2)C(=O)N[C@@H](CCCCN)C(=O)N1)C(=O)N1CCC[C@H]1C(=O)N[C@@H](CC(=O)Nc1ccc(-c2nc3ccc(C)cc3s2)cc1)C(=O)O` [Compound 68, Ac-K-F-R-R-Q-R-P-R-L-[E-H-K-K]-P-Nle-P-B2] (Ac-KFRRQRPRLEHKKP[Nle]PD(X2)-OH; lactam 10-13) to `CCCC[C@H](NC(=O)[C@@H]1CCCN1C(=O)CNC(=O)[C@H](CCCCN)NC(=O)[C@H](Cc1c[nH]cn1)NC(=O)[C@@H]1CC=CC[C@H](NC(=O)[C@@H]2CCC(=O)N2)C(=O)N2CCC[C@H]2C(=O)N[C@@H](C)C(=O)N[C@@H](CC(C)C)C(=O)N1)C(=O)N1CCC[C@H]1C(=O)N[C@@H](Cc1ccccc1)C(=O)O` [Compound 6, Pyr-c[X-P-A-L-X]c-H-K-G-P-Nle-P-F], the Ki rises from 0.004 ± 0.001 µM to > 10 µM.

In the case of `CCCC[C@H](NC(=O)[C@@H]1CCCN1C(=O)CNC(=O)[C@H](CCCCN)NC(=O)[C@H](Cc1c[nH]cn1)NC(=O)[C@H](CO)NC(=O)[C@@H]1CC=CC[C@H](NC(=O)[C@@H]2CCC(=O)N2)C(=O)N2CCC[C@H]2C(=O)N[C@@H](C)C(=O)N1)C(=O)N1CCC[C@H]1C(=O)N[C@@H](Cc1ccccc1)C(=O)O` [Compound 5, Pyr-c[X-P-A-X]c-S-H-K-G-P-Nle-P-F] ([pGlu][AllylGly]PA[AllylGly]SHKGP[Nle]PF-OH; staple 2-5), the Ki is reported as > 10 µM.

Source: patent US20240343761A1, “APELINERGIC MACROCYCLES AND USES THEREOF” (priority 2021, published 2024)
